Source: publication PMC7738869, “A novel STAT3 inhibitor W2014-S regresses human non-small cell lung cancer xenografts and sensitizes EGFR-TKI acquired resistance” (Theranostics, 2021)
Values joined by “and” are separate entries in the source; they are usually repeats but may differ in a detail not shown here. Identical values can stand only once. Like-named read-outs stand apart in the source and are kept apart here.

What was measured:
Pharmacokinetic study = type: in vivo, SD rats
Method: W2014-S was given to SD rats (male, 230-260g, n = 6) by gavage and intravenous administration. The rats were fasted for 12 h before administration and remained fasting for 2 h. For oral gavage, W2014-S was dissolved in DMSO/0.5% HPMC (5/95, v/v/), and W2014-S was dissolved in DMSO/EtOH/PEG300/0.9% NaCl (5/5/40/50, v/v/v/v) for intravenous administration. The pharmacokinetic (PK) profiles were next evaluated in SD rats.

STAT3-STAT3 dimerization = STAT3-STAT3 dimerization (Homo sapiens, UniProt P40763); test: Co-immunoprecipitation of HA-STAT3 and Flag-STAT3 in HEK-293T cells; type: cell-based; parameters: expressed in transfected cells; conditions: 24 h, 50 ng/mL EGF 30 min
STAT3-STAT3 dimerization, sequence (P40763 whole entry): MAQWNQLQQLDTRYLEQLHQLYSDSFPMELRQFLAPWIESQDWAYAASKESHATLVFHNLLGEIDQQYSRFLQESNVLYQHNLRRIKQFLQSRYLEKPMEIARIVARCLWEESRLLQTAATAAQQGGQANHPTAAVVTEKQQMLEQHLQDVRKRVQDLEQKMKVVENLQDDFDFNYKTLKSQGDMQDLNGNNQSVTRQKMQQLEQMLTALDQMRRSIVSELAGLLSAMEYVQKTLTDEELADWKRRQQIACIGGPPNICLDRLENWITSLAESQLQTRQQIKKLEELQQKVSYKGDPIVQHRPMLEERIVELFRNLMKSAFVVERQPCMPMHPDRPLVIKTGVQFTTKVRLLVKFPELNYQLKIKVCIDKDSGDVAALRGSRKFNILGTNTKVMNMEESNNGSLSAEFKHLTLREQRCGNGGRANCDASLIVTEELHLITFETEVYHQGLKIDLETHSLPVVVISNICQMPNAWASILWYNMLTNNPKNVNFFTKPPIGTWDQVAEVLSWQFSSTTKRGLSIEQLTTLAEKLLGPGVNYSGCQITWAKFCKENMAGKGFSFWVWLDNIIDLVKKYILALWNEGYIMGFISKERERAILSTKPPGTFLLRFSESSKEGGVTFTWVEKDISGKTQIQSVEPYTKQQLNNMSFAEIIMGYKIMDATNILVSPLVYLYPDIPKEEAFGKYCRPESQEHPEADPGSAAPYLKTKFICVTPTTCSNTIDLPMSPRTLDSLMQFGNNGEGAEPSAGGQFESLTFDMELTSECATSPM
Method: Cells or tumor tissue were lysed with RIPA buffer (Beyotime, Shanghai, China) supplemented with protease inhibitors (Beyotime, Shanghai, China) and phosphatase inhibitors (Bimake, USA). Lysates were denatured by heating for 5 min at 99 °C and loaded on 4-10% SDS-polyacrylamide gel electrophoresis. Then the proteins were transferred to polyvinylidene fluoride (PVDF) membranes (Millipore, USA). The membranes were blocked and probed with primary antibodies and secondary HPR-conjugated antibodies. At last the membranes were detected by chemiluminescence (Tanon, Shanghai, China). For co-immunoprecipitation experiments, 293T cells were plated and grew to about 80% confluency, then co-transfected with plasmids of HA-STAT3 and Flag-STAT3 using Lipofectamine 2000. […] Cells were lysed with IP RIPA buffer (Beyotime, Shanghai, China) supplemented with protease inhibitors (Beyotime, Shanghai, China) and phosphatase inhibitors (Bimake, America), and lysates were cultured with Anti-flag Affinity Gel (B23102, Bimake, USA) overnight at 4 ℃. The gel was washed by PBST for three times and added 1×loading buffer and denatured by heating for 5 min at 99 ℃. Then the proteins were resolved on SDS-PAGE, transferred to PVDF membranes and analysed with immunoblotting.

[1] = rat, i.v. 3 mg/kg, individual animals 4-6, 3 mg/kg
[2] = rat, p.o. 10 mg/kg, individual animals 1-3, 10 mg/kg

C[C@H](Oc1ccc(-c2nc3nc(C4=CCN(C(=O)OC(C)(C)C)CC4)ccc3[nH]2)cc1)c1ccccc1 [W2014-S] gave a concentration at 8 h (Pharmacokinetic study; male, SD, rat, plasma, po, 10 mg/kg, p.o. 10 mg/kg, 8.00 h) of 0.633 ng/mL, a concentration at 24 h (Pharmacokinetic study; male, SD, rat, plasma, po, 10 mg/kg, p.o. 10 mg/kg, 24.0 h, read-out: Concentration in rat plasma, mean) of 0 ng/mL and a half-life (Pharmacokinetic study; male, SD, rat, plasma, po, 10 mg/kg, p.o. 10 mg/kg, individual animals 1-3) of 1.21 h. It also gave an AUC(0-inf) (Pharmacokinetic study; male, SD, rat, plasma, po, 10 mg/kg, rat, p.o. 10 mg/kg, individual animals 1-3, read-out: AUCINF_obs) of 57.9 ng·h/mL, an AUC(0-t) (Pharmacokinetic study; male, SD, rat, plasma, po, 10 mg/kg, rat, p.o. 10 mg/kg, individual animals 1-3, read-out: AUClast) of 54.6 ng·h/mL and a half-life (Pharmacokinetic study; male, Sprague-Dawley (SD), rat, plasma, iv, 3 mg/kg, SD rats, 3 mg/kg iv, mean) of 13.6 h. For the same compound, the AUC(0-inf) (Pharmacokinetic study; male, Sprague-Dawley (SD), rat, plasma, iv, 3 mg/kg, SD rats, 3 mg/kg iv, mean, read-out: AUC0-inf) was 244 ng·h/mL, the AUC(0-t) (Pharmacokinetic study; male, Sprague-Dawley (SD), rat, plasma, iv, 3 mg/kg, SD rats, 3 mg/kg iv, mean, read-out: AUC0-last) was 222 ng·h/mL and the clearance (Pharmacokinetic study; male, Sprague-Dawley (SD), rat, plasma, iv, 3 mg/kg, SD rats, 3 mg/kg iv, mean, read-out: CL) was 206 mL/min/kg. The half-life (Pharmacokinetic study; male, Sprague-Dawley (SD), rat, plasma, po, 10 mg/kg, SD rats, 10 mg/kg po, mean) was 1.46 h, the AUC(0-inf) (Pharmacokinetic study; male, Sprague-Dawley (SD), rat, plasma, po, 10 mg/kg, SD rats, 10 mg/kg po, mean, read-out: AUC0-inf) was 56.1 ng·h/mL and the AUC(0-t) (Pharmacokinetic study; male, Sprague-Dawley (SD), rat, plasma, po, 10 mg/kg, SD rats, 10 mg/kg po, mean, read-out: AUC0-last) was 54.6 ng·h/mL. For the same compound, the Cmax (Pharmacokinetic study; male, Sprague-Dawley (SD), rat, plasma, po, 10 mg/kg, SD rats, 10 mg/kg po, mean, read-out: Cmax) was 23.8 ng/mL, the Tmax (Pharmacokinetic study; male, Sprague-Dawley (SD), rat, plasma, po, 10 mg/kg, SD rats, 10 mg/kg po, mean, read-out: Tmax) was 1.67 h and the MRT inf (Pharmacokinetic study; male, Sprague-Dawley (SD), rat, plasma, po, 10 mg/kg, rat, p.o. 10 mg/kg, mean, read-out: MRTINF_obs) was 2.61 h. For the same compound, the Vd (Pharmacokinetic study; male, Sprague-Dawley (SD), rat, plasma, SD rats, 3 mg/kg iv, mean, read-out: Vss) was 77.5 L/kg, the bioavailability (Pharmacokinetic study; male, Sprague-Dawley (SD), rat, plasma, SD rats, 10 mg/kg po vs 3 mg/kg iv) was 7.39% and the “Concentration in rat plasma, individual animals 1-3” value (shortened to “Concentration in rat plasma”) (Pharmacokinetic study; p.o. 10 mg/kg, 0.25 h, 10 mg/kg) was 29.9 ng/mL and 7.10 ng/mL and 21.9 ng/mL. For the same compound, the “Concentration in rat plasma” value (Pharmacokinetic study; p.o. 10 mg/kg, 0.50 h, 10 mg/kg) was 10.0 ng/mL and 27.4 ng/mL and 30.0 ng/mL, the “Concentration in rat plasma” value (Pharmacokinetic study; p.o. 10 mg/kg, 1.00 h, 10 mg/kg) was 8.00 ng/mL and 18.7 ng/mL and 21.7 ng/mL and the “Concentration in rat plasma” value (Pharmacokinetic study; p.o. 10 mg/kg, 2.00 h, 10 mg/kg) was 9.40 ng/mL and 6.60 ng/mL. For the same compound, the “Concentration in rat plasma” value (Pharmacokinetic study; p.o. 10 mg/kg, 4.00 h, 10 mg/kg) was 13.9 ng/mL and 4.80 ng/mL (2×), the “Concentration in rat plasma” value (Pharmacokinetic study; p.o. 10 mg/kg, 8.00 h, 10 mg/kg) was 1.20 ng/mL and 0.400 ng/mL and 0.300 ng/mL and the “Concentration in rat plasma” value (Pharmacokinetic study; p.o. 10 mg/kg, 24.0 h, BLQ: Below LLOQ (LLOQ = 0.3 ng/mL)) was “BLQ”. For the same compound, the AUCINF_obs (Pharmacokinetic study; [1]) was 247 ng·h/mL and 255 ng·h/mL, the AUClast (Pharmacokinetic study; [1]) was 220 ng·h/mL and 236 ng·h/mL and the CL_obs (Pharmacokinetic study; [1]) was 202 mL/min/kg and 196 mL/min/kg. For the same compound, the MRTINF_obs (Pharmacokinetic study; [1]) was 7.48 h and 5.59 h, the T1/2 (Pharmacokinetic study; [1]) was 14.2 h and 11.2 h and the Vss_obs (Pharmacokinetic study; [1]) was 76.143 L/kg and 90.763 L/kg and 65.72 L/kg. The Vss_obs (Pharmacokinetic study; rat, i.v. 3 mg/kg, mean) was 77.542 L/kg, the AUCINF_obs (Pharmacokinetic study; [2]) was 55.3 ng·h/mL and 55.0 ng·h/mL and the AUClast (Pharmacokinetic study; [2]) was 54.5 ng·h/mL. For the same compound, the Cmax (Pharmacokinetic study; [2]) was 13.9 ng/mL and 27.4 ng/mL and 30.0 ng/mL, the MRTINF_obs (Pharmacokinetic study; [2]) was 3.89 h and 2.08 h and 1.87 h and the T1/2 (Pharmacokinetic study; [2]) was 1.88 h and 1.29 h. The Tmax (Pharmacokinetic study; [2]) was 4.00 h and 0.50 h (2×) and the “binding of HA-STAT3 and Flag-STAT3 (STAT3 dimerization)” value (STAT3-STAT3 dimerization) was “inhibited the binding of HA-STAT3 and Flag-STAT3 in intact cells even at 0.3 μM”.
